Measurements: patent publication US6875891B2, “Process for preparing highly water soluble double salts of hydroxycitric acid particularly alkali and alkaline earth metal double salts” (Laila Impex, priority 2003, dated 2005)

What was measured:
[1] = background statement on known salts; cited from earlier work
[2] = background statement; cited from earlier work
[3] = equilibration between free acid form and lactone form when dissolved in water; type: physicochemical

Compound: O=C([O-])C[C@@](O)(C(=O)[O-])[C@H](O)C(=O)[O-].O=C([O-])C[C@@](O)(C(=O)[O-])[C@H](O)C(=O)[O-].[Ca+2].[Ca+2].[Ca+2] [calcium salt, calcium salt of hydroxycitric acid]
- solubility in water [1]: poorly soluble in water

Compound: O=C([O-])C[C@@](O)(C(=O)[O-])[C@H](O)C(=O)[O-].[K+].[K+].[K+] [tripotassium salt]
- hygroscopicity [2]: highly hygroscopic

Compound: calcium/potassium double salt of hydroxycitric acid [Ca/K double salt]
- equilibration between free form and lactone form of hydroxycitric acid [3]: does not equilibrate between the free form and the lactone form
